Results as given in patent US20260199492A1, “PSD-95 DOMAIN INHIBITOR, AND PREPARATION METHOD THEREFOR AND USE THEREOF” (SHENZHEN SALUBRIS PHARMACEUTICALS CO., LTD, priority 2023, published 2026).
Square brackets hold non-standard residues; d marks the D form. Peptide text beside a SMILES is read from it. Arg(Me) = CNC(=N)NCCC[C@H](N)C(=O)O

Experiments:
PDZ1-2 of PSD95 = PDZ1-2 of PSD95 (Homo sapiens, UniProt P78352); experiment: Fluorescence polarization competition binding assay of PDZ1-2 with probe 5-FAM-NA-1
Chain of PDZ1-2 of PSD95 (P78352 61-249 limits assumed): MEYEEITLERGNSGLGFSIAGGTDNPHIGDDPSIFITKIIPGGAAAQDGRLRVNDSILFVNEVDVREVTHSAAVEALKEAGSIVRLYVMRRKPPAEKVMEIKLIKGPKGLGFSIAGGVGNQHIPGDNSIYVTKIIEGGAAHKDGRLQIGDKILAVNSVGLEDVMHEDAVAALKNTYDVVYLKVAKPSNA

[1] = In vitro plasma stability experiment (compounds), without or with tPA; conditions: human, 37° C., initial concentration 10 μM
Protocol: (§1) • Plasma: Human plasma is commercially available. • Reagents: DMSO (dimethyl sulfoxide), disodium hydrogen phosphate, sodium dihydrogen phosphate, methanol, formic acid, and propranolol (internal standard) are commercially available. • Instrument: AB SCIEX QTRAP 5500+.
(§2) 5 μL of stock solution (10 mM) was diluted with 495 μL of 0.05 M sodium phosphate buffer to 100 μM of dosing solution. The final concentration of tested drug for incubation was 10 μM.
(§3) A certain volume (e.g., 27 μL or 24 μL) of plasma was added into a 96-well plate. An appropriate volume of the internal standard working solution (e.g., 150 μL) was immediately added to precipitate. […] This was performed in duplicate.
(§4) Then, an appropriate amount of plasma (e.g., 27 μL or 24 μL) was added at the designed time points (e.g., 5 min, 15 min, 30 min, 60 min, and 120 min, etc.), and the parallel replicate wells were performed at each time point. […] The reaction was terminated by adding an appropriate amount of internal standard working solution (e.g., 150 μL) at the end of the time, and the mixture was mixed thoroughly.
(§5) The mixture was centrifuged at 4000 rpm for 15 min. A certain amount of the supernatant was taken, mixed with a certain amount of water, and then subjected to LC/MS/MS analysis. LC-MS detection conditions were as follows: • Chromatography column: YMC Triart C18, 50*3.0 mm, 2.1 μm. • Mobile phase: Gradient elution was performed using water (0.1% formic acid)-acetonitrile according to the table below.
(§6) The relative content of drug at each time point was calculated using the initial 0 point as 100%. The half-life of the drug was calculated by plotting “relative drug content” against “incubation time” using GraphPad Prism 5 software.

in vitro = conditions: human, plasma
Protocol: as §1, §2, §3, §4, §5, §6

[2] = Toxicological experiment: serum UREA and CREA after 5 days of i.v. dosing; assay type: in vivo, SD rats
Protocol: The compounds of Examples 1-8 were accurately weighed into suitable EP tubes, and the vehicle (saline) was added to formulate a solution of a concentration of 15 mg/mL. The solution was filtered using a 0.2 μm filter for future use.
A total of 18 male SD rats of 6-7 weeks of age were used for test. After the animal quarantine and acclimatization period, the animals were randomly divided into 6 groups according to their body weights measured before grouping, vehicle control group (saline) as well as example compounds groups, 3 animals/group. Using the above prepared solution, the animal was administered intravenously via the tail vein at a dosage of 30 mg/kg and a dosing volume of 2 mL/kg. The dosing volume for each animal was calculated according to the body weight. Administration was performed once daily for 5 consecutive days. After 2 h of administration on day 5, the animals were deeply anesthetized by intraperitoneal injection of sodium pentobarbital. The thoracic cavity was opened, and blood was collected from the abdominal aorta into blood collection tubes containing inert separation gel and coagulant. The serum was collected by centrifugation (4000 rpm, 10 min) after about 1 h of resting. The concentrations of UREA and CREA in the serum were detected using a biochemical analyzer. The percentage change of each example compound relative to the vehicle control group was calculated using the formula: %=(Concentration of example compound−Concentration of vehicle control group)/Concentration of vehicle control group.

[3] = In vitro stability experiment of cell-penetrating peptides in human plasma
Protocol: as §2, §3, §4, §5, §6

[4] = With tPA T1/2, human plasma, with rt-PA […]
[5] = Without tPA T1/2, human plasma, without tPA
[6] = male SD rats, 30 mg/kg i.v. once daily for 5 days, serum 2 h after dosing on day 5
[7] = plasma, Without tPA T1/2, cell-penetrating peptide, human plasma, initial concentration 10 μM, without tPA
[8] = plasma, With tPA T1/2, cell-penetrating peptide, human plasma, initial concentration 10 μM, with tPA

`CC[C@H](C)[C@H](NC(=O)[C@H](CO)NC(=O)[C@H](CO)NC(=O)[C@H](CC(C)C)NC(=O)[C@@H](CCCCN)NC(=O)[C@H](CCCNC(=N)N)NC(=O)[C@H](CCCNC(=N)N)NC(=O)[C@H](CCCNC(=N)NC)NC(=O)[C@H](CCC(N)=O)NC(=O)[C@@H](CCCNC(=N)N)NC(=O)[C@H](CCCNC(=N)N)NC(=O)[C@H](CCCCN)NC(=O)[C@H](CCCCN)NC(=O)[C@](C)(CCCNC(=N)N)NC(=O)CNC(=O)[C@@H](N)Cc1ccc(O)cc1)C(=O)N[C@@H](CCC(=O)O)C(=O)N[C@@H](CO)C(=O)N[C@@H](CC(=O)O)C(=O)N[C@H](C(=O)O)C(C)C` (relative stereo) [Compound I13] gave an IC50 (PDZ1-2 of PSD95) of 6.33 µM, a half-life at 10 μM [1, 4] of 14.5 h and a half-life at 10 μM [1, 5] of 10.7 h.

`CC[C@H](C)[C@H](NC(=O)[C@H](CO)NC(=O)[C@H](CO)NC(=O)[C@H](CC(C)C)NC(=O)[C@@H](CCCCN)NC(=O)[C@H](CCCNC(=N)N)NC(=O)[C@H](CCCNC(=N)N)NC(=O)[C@H](CCCNC(=N)NC)NC(=O)[C@H](CCC(=O)O)NC(=O)[C@@H](CCCNC(=N)N)NC(=O)[C@H](CCCNC(=N)N)NC(=O)[C@H](CCCCN)NC(=O)[C@H](CCCCN)NC(=O)[C@](C)(CCCNC(=N)N)NC(=O)CNC(=O)[C@@H](N)Cc1ccc(O)cc1)C(=O)N[C@@H](CCC(=O)O)C(=O)N[C@@H](CO)C(=O)N[C@@H](CC(=O)O)C(=O)N[C@H](C(=O)O)C(C)C` (relative stereo) [Compound I15] gave an IC50 (PDZ1-2 of PSD95) of 7.89 µM, a half-life (in vitro; With tPA T1/2) of 27.2 h and a half-life (in vitro; Without tPA T1/2) greater than 33.3 h.

Molecule `CC[C@H](C)[C@H](NC(=O)CCOCCOCCN(CCOCCOCCC(=O)N[C@H](C(=O)N[C@@H](CCC(=O)O)C(=O)N[C@H](C(=O)N[C@@H](CC(=O)O)C(=O)N[C@H](C(=O)O)C(C)C)[C@@H](C)O)[C@@H](C)CC)C(=O)[C@H](CCCNC(=N)N)NC(=O)[C@H](CCCNC(=N)N)NC(=O)[C@@H](CCCNC(=N)N)NC(=O)[C@H](CCC(N)=O)NC(=O)[C@@H](CCCNC(=N)N)NC(=O)[C@H](CCCNC(=N)N)NC(=O)[C@H](CCCCN)NC(=O)[C@H](CCCCN)NC(=O)[C@@H](CCCNC(=N)N)NC(=O)CNC(=O)[C@@H](N)Cc1ccc(O)cc1)C(=O)N[C@@H](CCC(=O)O)C(=O)N[C@H](C(=O)N[C@@H](CC(=O)O)C(=O)N[C@H](C(=O)O)C(C)C)[C@@H](C)O` [Compound 43] has a half-life (in vitro; With tPA T1/2, human plasma, 37° C., initial concentration 10 μM, with rt-PA […]) of 20.5 h and a half-life (in vitro; Without tPA T1/2, human plasma, 37° C., initial concentration 10 μM, without tPA) greater than 33.3 h.

With `CC[C@H](C)[C@H](NC(=O)CCOCCOCCN(CCOCCOCCC(=O)N[C@H](C(=O)N[C@@H](CCC(=O)O)C(=O)N[C@H](C(=O)N[C@@H](CC(=O)O)C(=O)N[C@H](C(=O)O)C(C)C)[C@@H](C)O)[C@@H](C)CC)C(=O)[C@H](CCCNC(=N)N)NC(=O)[C@H](CCCNC(=N)N)NC(=O)[C@@H](CCCNC(=N)N)NC(=O)[C@H](CCC(=O)O)NC(=O)[C@@H](CCCNC(=N)N)NC(=O)[C@H](CCCNC(=N)N)NC(=O)[C@H](CCCCN)NC(=O)[C@H](CCCCN)NC(=O)[C@@H](CCCNC(=N)N)NC(=O)CNC(=O)[C@@H](N)Cc1ccc(O)cc1)C(=O)N[C@@H](CCC(=O)O)C(=O)N[C@H](C(=O)N[C@@H](CC(=O)O)C(=O)N[C@H](C(=O)O)C(C)C)[C@@H](C)O` [Compound 65] the half-life at 10 μM [1, 4] was 10.5 h, the half-life at 10 μM [1, 5] was greater than 33.3 h and the “CREA, percentage change compared to vehicle control group” value [2, 6] was −3.3%. For the same molecule, the “UREA, percentage change compared to vehicle control group” value [2, 6] was 23.7%.

`CC[C@H](C)[C@H](NC(=O)[C@H](CO)NC(=O)[C@H](CO)NC(=O)[C@H](CC(C)C)NC(=O)[C@@H](CCCCN)NC(=O)[C@H](CCCNC(=N)N)NC(=O)[C@H](CCCNC(=N)N)NC(=O)[C@H](CCCNC(=N)NC)NC(=O)[C@H](CCC(=O)O)NC(=O)[C@@H](CCCNC(=N)N)NC(=O)[C@H](CCCNC(=N)N)NC(=O)[C@H](CCCCN)NC(=O)[C@H](CCCCN)NC(=O)[C@@H](CCCNC(=N)N)NC(=O)CNC(=O)[C@@H](N)Cc1ccc(O)cc1)C(=O)N[C@@H](CCC(=O)O)C(=O)N[C@@H](CO)C(=O)N[C@@H](CC(=O)O)C(=O)N[C@H](C(=O)O)C(C)C` [Compound I1] (H-YG[dR]KKR[dR]E[Arg(Me)]RR[dK]LSSIESDV-OH) showed a half-life (in vitro; With tPA T1/2) of 9.18 h and a half-life (in vitro; Without tPA T1/2) of 18.6 h.

In the case of `CC[C@H](C)[C@H](NC(=O)[C@H](CO)NC(=O)[C@H](CO)NC(=O)[C@H](CC(C)C)NC(=O)[C@@H](CCCCN)NC(=O)[C@H](CCCNC(=N)N)NC(=O)[C@H](CCCNC(=N)N)NC(=O)[C@@H](CCCNC(=N)N)NC(=O)[C@H](CCC(N)=O)NC(=O)[C@@H](CCCNC(=N)N)NC(=O)[C@H](CCCNC(=N)N)NC(=O)[C@H](CCCCN)NC(=O)[C@H](CCCCN)NC(=O)[C@@H](CCCNC(=N)N)NC(=O)CNC(=O)[C@@H](N)Cc1ccc(O)cc1)C(=O)N[C@@H](CCC(=O)O)C(=O)N[C@@H](CO)C(=O)N[C@@H](CC(=O)O)C(=O)N[C@H](C(=O)O)C(C)C` [NoNo-42, reference compound] (H-YG[dR]KKR[dR]Q[dR]RR[dK]LSSIESDV-OH; N-terminus and C-terminus assumed), the IC50 (PDZ1-2 of PSD95) is reported as 9.71 µM, the half-life at 10 μM (in vitro) is reported as 6.88 h and the “CREA, percentage change compared to vehicle control group” value ([2]; rat, in vivo, iv, 30 mg/kg) is reported as 308.8%. For the same molecule, the “UREA, percentage change compared to vehicle control group” value ([2]; rat, in vivo, iv, 30 mg/kg) was 237.9%.

Molecule `N=C(N)NCCC[C@H](NC(=O)[C@H](CCCNC(=N)N)NC(=O)[C@H](CCCNC(=N)N)NC(=O)[C@H](CCC(N)=O)NC(=O)[C@H](CCCNC(=N)N)NC(=O)[C@H](CCCNC(=N)N)NC(=O)[C@H](CCCCN)NC(=O)[C@H](CCCCN)NC(=O)[C@H](CCCNC(=N)N)NC(=O)CNC(=O)[C@@H](N)Cc1ccc(O)cc1)C(=O)O` [TAT-1, reference compound] has a half-life at 10 μM [3, 7] of 1.52 h.

Molecule `N=C(N)NCCC[C@H](NC(=O)[C@@H](CCCNC(=N)N)NC(=O)[C@H](CCC(N)=O)NC(=O)[C@@H](CCCNC(=N)N)NC(=O)[C@H](CCCNC(=N)N)NC(=O)[C@H](CCCCN)NC(=O)[C@H](CCCCN)NC(=O)[C@@H](CCCNC(=N)N)NC(=O)CNC(=O)[C@@H](N)Cc1ccc(O)cc1)C(=O)O` [TAT-3] (H-YG[dR]KKR[dR]Q[dR]R-OH) has a half-life at 10 μM ([3]; plasma) of 21.7 h and a half-life at 10 μM ([3]; plasma with added rt-PA) of 27.5 h.

Work on `N=C(N)NCCC[C@H](NC(=O)[C@H](CCCNC(=N)N)NC(=O)[C@@H](CCCNC(=N)N)NC(=O)[C@H](CCC(=O)O)NC(=O)[C@@H](CCCNC(=N)N)NC(=O)[C@H](CCCNC(=N)N)NC(=O)[C@H](CCCCN)NC(=O)[C@H](CCCCN)NC(=O)[C@@H](CCCNC(=N)N)NC(=O)CNC(=O)[C@@H](N)Cc1ccc(O)cc1)C(=O)O` [TAT-4] yielded a half-life at 10 μM [3, 8] of 14.9 h and a half-life at 10 μM [3, 7] of 11.9 h.

For `CNC(=N)NCCC[C@H](NC(=O)[C@H](CCC(N)=O)NC(=O)[C@@H](CCCNC(=N)N)NC(=O)[C@H](CCCNC(=N)N)NC(=O)[C@H](CCCCN)NC(=O)[C@H](CCCCN)NC(=O)[C@@H](CCCNC(=N)N)NC(=O)CNC(=O)[C@@H](N)Cc1ccc(O)cc1)C(=O)N[C@@H](CCCNC(=N)N)C(=O)N[C@@H](CCCNC(=N)N)C(=O)O` [TAT-5], the half-life at 10 μM [3, 8] was 12.3 h and the half-life at 10 μM [3, 7] was greater than 33.3 h.

`CNC(=N)NCCC[C@H](NC(=O)[C@H](CCC(=O)O)NC(=O)[C@@H](CCCNC(=N)N)NC(=O)[C@H](CCCNC(=N)N)NC(=O)[C@H](CCCCN)NC(=O)[C@H](CCCCN)NC(=O)[C@@H](CCCNC(=N)N)NC(=O)CNC(=O)[C@@H](N)Cc1ccc(O)cc1)C(=O)N[C@@H](CCCNC(=N)N)C(=O)N[C@@H](CCCNC(=N)N)C(=O)O` [TAT-6] gave a half-life at 10 μM [3, 8] of 4.3 h and a half-life at 10 μM [3, 7] of 2.83 h.
